Source: patent US20040259159A1, “Role of LDL receptor protein-1 (LRP-1) in Alzheimer's disease” (priority 2000, published 2004)
Where a SMILES comes first, the peptide text is derived from it. The star is where a group is joined. Cbz = O=C(OCc1ccccc1)*

Assays:
LRP-1 [1] = assay: Pulse chase of [35S]-methionine labeled LRP-1 in human brain endothelial cells (half-life); assay type: cell-based
Experimental: Human BEC (4×10^5) were pulsed for 1 hr at 37° C. with 400 μCi of [35S]-methionine (greater than 1000 Ci/mmol; Perkin Elmer, Boston, Mass.) in methionine-free Dulbecco modified Eagle medium (GIBCO BRL, New York, N.Y.). Cells were chased at indicated times within 48 hr. Cell lysates were immunoprecipitated with anti-LRP-1 515 kDa α-chain specific IgG (8G1) on SDS-PAGE. The intensity of signal was quantified in pixels using Storm 860 Phosphoimager (Amersham Biosciences, Piscataway, N.J.).

LRP-1 [2] = assay: LRP-1 levels in human brain endothelial cells exposed to Aβ (Western blot); assay type: cell-based; settings: human BEC; for effect on LRP-1 levels (85 kDa β-subunit and 515 kDa α-subunit): greater than or equal to 1 μM, 48 hr; for effect on LRP-1 expression: low concentrations (less than 10 nM), within 48 hr
Experimental: Human brain endothelial cells (BEC) were isolated from rapid autopsies of neurologically normal young individuals after trauma. BECs were characterized and cultured, and then incubated with different Aβ isoforms at concentrations ranging from 1 nM to 20 μM within 48 hr. Cells were lysed and equal amounts of proteins (10 μg/mi) were separated by 10% denaturing polyacrylamide gel electrophoresis (SDS-PAGE), transferred onto nitrocellulose membrane, and probed with 5A6 (β-chain) or 8G1 (α-chain) human anti-LRP-1-specific IgGs. The relative density of each protein was determined by scanning densitometry using β-actin as an internal control.

[3] = parameters: species or system mice; settings: mouse, in vivo
Experimental: Brain, blood and CSF were sampled and prepared for radioactivity analysis. […] Brain, plasma and CSF samples were mixed with TCA (final concentration 10%), centrifuged at 14,000 rpm at 4° C. for 8 min to 10 min, and radioactivity in the precipitate, water and chloroform fractions determined in gamma counter (Wallac, Turku, Finland).
The supernatant was then lyophilized. The resulting material was dissolved in 0.005% TFA in water, pH 2, before injection onto a C4 column (Vydac, The Separation Group, Hesperia, Calif.). […] Column eluants were monitored at 214 nm. The eluted fractions were collected and counted.
For SDS-PAGE analysis, TCA precipitated samples were resuspended in 1% SDS, vortexed and incubated at 55° C. for 5 min, then neutralized, boiled for 3 min, homogenized and analyzed by electrophoresis in 10% Tris-tricine gels followed by fluorography.

[4] = Brain clearance model in mice: efflux of 125I-Aβ1-40 and 14C-inulin after intracerebral microinjection; assay type: in vivo, mice
Experimental: Male C57BL/6 wild-type mice, 8-10 weeks old and 9-10 months old, and male apoE knockout mice (apoE KO) on a C57BL/6 background (Taconic Farm, German-town, N.Y.), 8-10 weeks old and 9-10 months old, were studied.
A stainless steel guide cannula was implanted stereotaxically into the right caudate-putamen of anesthetized mice (60 mg/kg i.p. sodium pentobarbital). Coordinates for the tip of the cannula were 0.9 mm anterior and 1.9 mm lateral to bregma and 2.9 mm below the surface of the brain. The guide cannula and screw were fixed to the skull with methylmethacrylate (Plastics One, Roanoke, Va.) and a stylet introduced into the guide cannula.
(§1) For radioisotope injection, animals were re-anesthetized and an injector cannula (Plastic One, Roanoke, Va.) attached with 24G-TEFLON tubing (Small Parts, Miami Lake, Fla.) to a 10 μl gas-tight microsyringe (Hamilton, Reno, Nev.) was used. The amount of injected tracers was determined accurately using a micrometer to measure linear displacement of the syringe plunger in the precalibrated microsyringe. […] When the effects of different molecular reagents were tested, those were injected simultaneously with the radiolabeled peptides.
The analysis of radioactivity-disappearance curves from the brain was as reported (40, 43). The percentage of radioactivity remaining in the brain after microinjection was determined from eq. 1 as % Recovery in brain=100×(Nb/Ni) where, Nb is the radioactivity remaining in the brain at the end of the experiment and Ni is the radioactivity injected into the brain.
Inulin was studied as a metabolically inert polar reference marker that is neither transported across the BBB nor retained by the brain (40); its clearance rate, i.e., kinulin, provides a measure of the ISF bulk flow and is calculated as Nb(inulin)/Ni(inulin)=exp (−kinulin*t) (2).
For Aβ, there are two possible physiological pathways of elimination—direct transport across the BBB into the bloodstream and elimination by ISF bulk flow into the CSF and cervical lymphatics. It is also possible that Aβ is retained within the brain either by binding to its cell surface receptors directly as a free peptide and/or by binding to different transport proteins. Thus, according to the model, the fraction of Aβ remaining in the brain can be expressed as Nb(Aβ)/Ni(Aβ)=a1+a2*e^−k1*t (3), where a1=k2/(k1+k2) and a2=k1/(k1+k2), and k1 and k2 denote the fractional coefficients of total efflux from the brain and retention within the brain, respectively.
The fractional rate constant of Aβ efflux across the BBB from brain parenchyma can be calculated by knowing the fractional rate coefficient of total efflux of Aβ and inulin as k3=k1−k(inulin) (4), i.e., as the difference between the fractional rate constant for total efflux of Aβ and the fractional rate constant of inulin. The half-saturation concentration for the elimination of Aβ by transport across the BBB, k0.5, was calculated from the equation [1−(Nb/Ni)]*100=Clmax/(k0.5+Ni) (5), where Clmax represents the maximal efflux capacity for the saturable component of Aβ clearance across the BBB corrected for peptide clearance by the ISF flow. Clmax is expressed as a percentage of the injected dose, [1−(Nb/Ni)]×100, cleared from brain by saturable BBB transport over 30 min.
The MLAB mathematical modeling system (Civilized Software, Silver Spring, Md.) was used to fit the compartmental model to the disappearance curves or percent recovery data with inverse square weighting.

[5] = test system: brain clearance of ^125I-Aβ1-40; assay: Effect of molecular reagents on brain clearance of 125I-Aβ1-40 at 30 min; assay type: in vivo, mice; settings: 125I-Aβ1-40 12 nM
Experimental: as §1
The next set of experiments was designed to characterize the BBB transport system responsible for the transcytosis of Aβ. […] Clearance of ^14C-inulin was not affected by any of the studied molecular reagents.

## CC(C)C[C@@H](C=O)NC(=O)[C@H](CC(C)C)NC(=O)[C@H](CC(C)C)NC(=O)OCc1ccccc1 [MG132] (Cbz-Leu-Leu-Leu-aldehyde)
LRP-1 [1]; MG132 20 μM, both control and Aβ-treated cells
  effect on t1/2 for LRP-1: increased

## Aβ1-40: synthetic wild-type amyloid-β peptide of 40 amino acids; in clearance text it means the radioiodinated tracer
LRP-1 [2]
  effect on LRP-1 levels (85 kDa β-subunit and 515 kDa α-subunit): progressively decreased
  effect on LRP-1 expression: do not alter significantly
[3]
  degradation/metabolism in brain ISF prior to BBB transport: not observed
[4]; mouse
  half-saturation (K0.5) of the BBB efflux transport system: 15.3 nM
[4]; mouse, in vivo
  Retention in brain t½: 2.742 h
  Transport by BBB t½: 0.577 ± 0.06 h
  elimination rate from brain at less than 2 nM faster than at a load of 60 nM: 3.5 fold
  rate k of clearance from the brain higher than that for inulin: 7.9 fold
  reduction of brain clearance in 9-month old apoE KO mice: 46%
  reduction of brain clearance in 9-month old wild-type mice: 55%
  reduction of brain clearance in young (2-month old) apoE KO mice: 30%
[4]; mouse, in vivo, 5 h
  dose remaining sequestered within the CNS: 15.6%
[4]; mouse, not told
  Total Efflux t½ (half-time for brain efflux): 0.417 h
  difference in half-time of brain efflux versus inulin: 9.4 fold

## Aβ1-42: synthetic wild-type amyloid-β peptide of 42 amino acids
LRP-1 [1]; 20 μM, control 9.6 hr, human BEC
  t1/2 for LRP-1 in the presence of peptide: 6.4 h
LRP-1 [2]
  effect on LRP-1 levels (85 kDa β-subunit and 515 kDa α-subunit): progressively decreased
  effect on LRP-1 expression: do not alter significantly

## ^14C-Inulin
[4]; 60 nM
  Retention in brain k: None
  Retention in brain t½: None
  Transport by BBB t½: None
[4]; 60 nM 125I-Aβ1-40 with 14C-inulin, microinjection into caudate nucleus, mice
  Total Efflux k: 0.0029 ± 0.0002 min⁻¹
[4]; 60 nM, microinjection into caudate nucleus, young mice
  Total Efflux t½ (half-time for brain efflux): 3.983 ± 0.208 h
[4]; 60 nM, ISF bulk flow
  Transport by ISF k: 0.0029 ± 0.0002 min⁻¹
  Transport by ISF t½: 3.98 ± 0.208 h
[4]; 60 nM, k3=k1−k(inulin), eq. 4
  Transport by BBB k: None

## mutant Aβ (Dutch/Iowa4o): synthetic Aβ peptide of 40 amino acids with Dutch/Iowa double mutation E22Q/D23N
LRP-1 [2]
  effect on LRP-1 levels (85 kDa β-subunit and 515 kDa α-subunit): progressively decreased
  effect on LRP-1 expression: do not alter significantly

B1: RAP: receptor associated protein, chaperone that antagonizes binding of LRP ligands to LRP-1 and LRP-2 (protein, UniProt P30533 35-357, looked up)
Alpha-2-macroglobulin …: YSREKNQPKPSPKRESGEEFRMEKLNQLWEKAQRLHLPPVRLAELHADLKIQERDELAWKKLKLDGLDEDGEKEARLIRNLNVILAKYGLDGKKDARQVTSNSLSGTQEDGLDDPRLEKLWHKAKTSGKFSGEELDKLWREFLHHKEKVHEYNVLLETLSRTEEIHENVISPSDLSDIKGSVLHSRHTELKEKLRSINQGLDRLRRVSHQGYSTEAEFEEPRVIDLWDLAQSANLTDKELEAFREELKHFEAKIEKHNHYQKQLEIAHEKLRHAESVGDGERVSRSREKHALLEGRTKELGYTVKKHLQDLSGRISRARHNEL
[5]; RAP 200 nM, versus vehicle
  reduction in Aβ clearance from the brain: 30%
[5]; RAP 5 μM
  decrease in Aβ clearance from the brain: 44%
